The values that follow come from article PMC2927429, “Novel Naphthalene-Based Inhibitors of Trypanosoma brucei RNA Editing Ligase 1” (PLoS Neglected Tropical Diseases, 2010).

The assay addresses T1, RNA editing ligase 1 (TbREL1) (Trypanosoma brucei, UniProt P86926).
T1 construct: gene REL1; recombinant full-length TbREL1, C-terminal TAP tag, Sf9 cells
T1 sequence (P86926 1-469): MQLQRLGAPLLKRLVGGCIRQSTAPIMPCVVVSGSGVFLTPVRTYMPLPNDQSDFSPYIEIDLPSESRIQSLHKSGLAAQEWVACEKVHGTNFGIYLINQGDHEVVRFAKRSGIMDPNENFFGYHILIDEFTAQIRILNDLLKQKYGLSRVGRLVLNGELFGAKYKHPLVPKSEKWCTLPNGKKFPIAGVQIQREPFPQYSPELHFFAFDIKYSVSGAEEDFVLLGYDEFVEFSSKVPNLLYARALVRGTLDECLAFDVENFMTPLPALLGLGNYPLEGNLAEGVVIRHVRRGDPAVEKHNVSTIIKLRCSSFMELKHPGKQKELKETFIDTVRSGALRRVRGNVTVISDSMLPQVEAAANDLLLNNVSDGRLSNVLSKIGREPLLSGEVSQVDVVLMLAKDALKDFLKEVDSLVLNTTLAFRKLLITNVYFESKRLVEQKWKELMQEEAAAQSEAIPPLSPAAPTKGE
Put plainly: inhibition of TbREL1 adenylylation with [α-32P]ATP, SDS/PAGE and phosphorimaging, […] Triton X-100. Type of assay: biochemical.

Read-outs that look alike come from different tables or passages of the source.

A word on the IC50: it is the concentration at which inhibition is half-maximal.

Turning to `O=C(Nc1ccc2c(O)c(/N=N/c3ccc4c(O)cc(S(=O)(=O)O)cc4c3)c(S(=O)(=O)O)cc2c1)c1ccccc1` [V1, (E)-7-benzamido-4-hydroxy-3-((5-hydroxy-7-sulfonaphthalen-2-yl)diazenyl)naphthalene-2-sulfonic acid], the IC50 (read-out: IC50) was 2160 ± 1200 nM.
Same read-out and setting: as for `Nc1ccc2c(O)c(/N=N/c3ccc4c(O)cc(S(=O)(=O)O)cc4c3)c(S(=O)(=O)O)cc2c1` [V2, (E)-7-amino-4-hydroxy-3-((5-hydroxy-7-sulfonaphthalen-2-yl)diazenyl)naphthalene-2-sulfonic acid], the figure is 1530 ± 1170 nM.
`O=S(=O)(O)c1cc(O)c2ccc(Nc3ccc4c(O)cc(S(=O)(=O)O)cc4c3)cc2c1` [V3, Di-J acid]: the IC50 (read-out: IC50) amounted to 8360 ± 1710 nM.
In turn, `O=S(=O)(O)c1cc(/N=N/c2c(O)ccc3ccccc23)c(O)c(/N=N/c2c(O)ccc3cc(S(=O)(=O)O)ccc23)c1` [V4, Mordant Black 25] registered an IC50 of 1590 ± 1100 nM.
